Values quoted from earlier work, collected in patent publication US11642396B2 (priority 2013, dated 2023).

System: H7N9 infection
Details: human, in vivo

Compound: CCOC(=O)C1=C[C@@H](OC(CC)CC)[C@H](NC(C)=O)[C@@H](N)C1 [oseltamivir]
- viral load in the respiratory tract of patients: reduce the viral load
